Results: the supplement of paper PMC8149375

How the values were obtained:
Conditions in all cases: treatment: drug + dasatinib (fixed dose, not stated); 5 days
[1] = test system: 769-P; experiment: GI50 of drug in presence of dasatinib; higher = less potent
Description: (§1)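 Primary HTS combination arm: 8 RCC cell lines treated with 8 doses (up to 10 uM) of each library drug plus a fixed dose of dasatinib (dose not stated) for 5 days; viability read by CellTiter-Glo and normalised to DMSO. GI50 was fitted with XLfit, AUC is the area under the dose-response curve, and minimum viability is the lowest fraction of DMSO viability across doses.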

[2] = test system: 786-O; experiment: as above
Description: as §1

[3] = test system: A498; experiment: as above
Description: as §1

[4] = test system: ACHN; experiment: as above
Description: as §1

[5] = test system: CAKI-1; experiment: as above
Description: as §1

[6] = test system: SN12C; experiment: as above
Description: as §1

[7] = test system: TK-10; experiment: as above
Description: as §1

[8] = test system: UO-31; experiment: as above
Description: as §1

[9] = test system: 769-P; experiment: minimum viability across doses, drug + dasatinib, relative to DMSO (fraction); higher = less growth inhibition
Description: as §1

[10] = test system: 786-O; experiment: as above
Description: as §1

[11] = test system: A498; experiment: as above
Description: as §1

[12] = test system: ACHN; experiment: as above
Description: as §1

[13] = test system: CAKI-1; experiment: as above
Description: as §1

[14] = test system: SN12C; experiment: as above
Description: as §1

[15] = test system: TK-10; experiment: as above
Description: as §1

[16] = test system: UO-31; experiment: as above
Description: as §1

[17] = test system: 769-P; experiment: AUC of dose-response viability curve, drug + dasatinib, normalised to DMSO (arbitrary (AUC of normalised viability)); higher = less growth inhibition
Description: as §1

[18] = test system: 786-O; experiment: as above
Description: as §1

[19] = test system: A498; experiment: as above
Description: as §1

[20] = test system: ACHN; experiment: as above
Description: as §1

[21] = test system: CAKI-1; experiment: as above
Description: as §1

[22] = test system: SN12C; experiment: as above
Description: as §1

[23] = test system: TK-10; experiment: as above
Description: as §1

[24] = test system: UO-31; experiment: as above
Description: as §1

Row | Structure (SMILES) | GI50 of drug [2] | GI50 of drug [4] | GI50 of drug [1] | GI50 of drug [3] | GI50 of drug [5] | GI50 of drug [6] | GI50 of drug [7] | GI50 of drug [8] | minimum viability across doses [9] | minimum viability across doses [10] | minimum viability across doses [11] | minimum viability across doses [12] | minimum viability across doses [13] | minimum viability across doses [14] | minimum viability across doses [15] | minimum viability across doses [16] | AUC of dose-response viability curve [17] | AUC of dose-response viability curve [18] | AUC of dose-response viability curve [19] | AUC of dose-response viability curve [20] | AUC of dose-response viability curve [21] | AUC of dose-response viability curve [22] | AUC of dose-response viability curve [23] | AUC of dose-response viability curve [24]
1 | CC(=O)Nc1ccc(NC(=S)NC(=O)c2ccc(C(C)(C)C)cc2)cc1 [Tenovin-1] + Cc1nc(Nc2ncc(C(=O)Nc3c(C)cccc3Cl)s2)cc(N2CCN(CCO)CC2)n1 [dasatinib] | 0.264 µM | 1.2 µM | 0.554 µM | 0.854 µM | > 10 µM | > 10 µM | 2.84 µM | 0.825 µM | 0.125 | 0.00416 | 0.0745 | 0.385 | 0.498 | 0.656 | 0.342 | 0.0071 | 1.91 | 1.53 | 2.71 | 1.95 | 2.19 | 2.47 | 2.2 | 3
2 | O=C1CCC(N2C(=O)c3ccccc3C2=O)C(=O)N1 (stereo unspecified) [Thalidomide] + Cc1nc(Nc2ncc(C(=O)Nc3c(C)cccc3Cl)s2)cc(N2CCN(CCO)CC2)n1 [dasatinib] | > 10 µM | > 10 µM | > 10 µM | > 10 µM | > 10 µM | > 10 µM | > 10 µM | > 10 µM | 0.666 | 0.556 | 0.971 | 0.555 | 0.638 | 0.679 | 0.665 | 1.03 | 2.54 | 2.49 | 3.94 | 2.17 | 2.35 | 2.52 | 2.48 | 4.13
3 | O=C(NCc1ccccc1)c1csc(Nc2ccncn2)n1 [Thiazovivin] + Cc1nc(Nc2ncc(C(=O)Nc3c(C)cccc3Cl)s2)cc(N2CCN(CCO)CC2)n1 [dasatinib] | 2.39 µM | 2.07 µM | 2.83 µM | > 10 µM | 1.87 µM | > 10 µM | > 10 µM | 1.65 µM | 0.318 | 0.327 | 0.777 | 0.225 | 0.175 | 0.694 | 0.494 | 0.0123 | 2.27 | 2.04 | 3.03 | 2.12 | 2.04 | 2.56 | 2.73 | 2.79
4 | COc1cc2nccc(Oc3ccc(NC(=O)Nc4cc(C)on4)c(Cl)c3)c2cc1OC [Tivozanib (AV-951)] + Cc1nc(Nc2ncc(C(=O)Nc3c(C)cccc3Cl)s2)cc(N2CCN(CCO)CC2)n1 [dasatinib] | > 10 µM | 1.63 µM | 1.57 µM | 9.89 µM | 0.743 µM | 1.95 µM | 9.67 µM | 4.15 µM | 0.146 | 0.569 | 0.457 | 0.0982 | 0.0242 | 0.134 | 0.493 | 0.0455 | 2.1 | 2.68 | 3.13 | 1.95 | 1.75 | 2.12 | 2.55 | 3.32
5 | CC(C)(C)c1cc(/C=C(\C#N)C(N)=S)cc(C(C)(C)C)c1O [Tyrphostin AG 879 (AG 879)] + Cc1nc(Nc2ncc(C(=O)Nc3c(C)cccc3Cl)s2)cc(N2CCN(CCO)CC2)n1 [dasatinib] | < 0.003 µM | > 10 µM | > 10 µM | > 10 µM | 7.59 µM | > 10 µM | > 10 µM | > 10 µM | 0.689 | 0.458 | 1 | 0.556 | 0.45 | 0.706 | 0.653 | 1.26 | 2.55 | 1.83 | 3.69 | 2.11 | 2.38 | 2.56 | 2.39 | 5.04
6 | CCCS(=O)(=O)Nc1ccc(F)c(C(=O)c2c[nH]c3ncc(-c4ccc(Cl)cc4)cc23)c1F [Vemurafenib (PLX4032)] + Cc1nc(Nc2ncc(C(=O)Nc3c(C)cccc3Cl)s2)cc(N2CCN(CCO)CC2)n1 [dasatinib] | 3.84 µM | 5.76 µM | > 10 µM | > 10 µM | > 10 µM | > 10 µM | 9.22 µM | > 10 µM | 0.618 | 0.326 | 0.838 | 0.403 | 0.57 | 0.719 | 0.6 | 0.853 | 2 | 2.11 | 3.37 | 2.05 | 2.39 | 2.62 | 2.4 | 3.4
7 | COc1cc2ncnc(Nc3ccc(O)c(Br)c3)c2cc1OC [WHI-P154] + Cc1nc(Nc2ncc(C(=O)Nc3c(C)cccc3Cl)s2)cc(N2CCN(CCO)CC2)n1 [dasatinib] | > 10 µM | 0.0337 µM | 2.58 µM | > 10 µM | 2.98 µM | > 10 µM | 1.92 µM | > 10 µM | 0.348 | 0.547 | 0.937 | 0.218 | 0.211 | 0.603 | 0.422 | 1.22 | 2.22 | 2.26 | 3.93 | 1.42 | 2.26 | 2.51 | 2.16 | 5.45
8 | C[C@H](NC(=O)/C(C#N)=C/c1cccc(Br)n1)c1ccccc1 [WP1066] + Cc1nc(Nc2ncc(C(=O)Nc3c(C)cccc3Cl)s2)cc(N2CCN(CCO)CC2)n1 [dasatinib] | 4.31 µM | 0.00856 µM | 3.93 µM | > 10 µM | 3.97 µM | > 10 µM | > 10 µM | 7.91 µM | 0.0555 | 0.0254 | 0.638 | 0.0689 | 0.285 | 0.385 | 0.713 | 0.00793 | 2.49 | 2.35 | 3.03 | 1.48 | 2.28 | 2.36 | 2.77 | 4.08

Second part, led by results:

Row | GI50 of drug [2] | GI50 of drug [4] | Structure (SMILES) | GI50 of drug [1] | GI50 of drug [3] | GI50 of drug [5] | GI50 of drug [6] | GI50 of drug [7] | GI50 of drug [8] | minimum viability across doses [9] | minimum viability across doses [10] | minimum viability across doses [11] | minimum viability across doses [12] | minimum viability across doses [13] | minimum viability across doses [14] | minimum viability across doses [15] | minimum viability across doses [16] | AUC of dose-response viability curve [17] | AUC of dose-response viability curve [18] | AUC of dose-response viability curve [19] | AUC of dose-response viability curve [20] | AUC of dose-response viability curve [21] | AUC of dose-response viability curve [22] | AUC of dose-response viability curve [23] | AUC of dose-response viability curve [24]
9 | > 10 µM | 3.27 µM | COc1cc2c(N3CCN(C(=O)Nc4ccc(OC(C)C)cc4)CC3)ncnc2cc1OCCCN1CCCCC1 [Tandutinib (MLN518)] + Cc1nc(Nc2ncc(C(=O)Nc3c(C)cccc3Cl)s2)cc(N2CCN(CCO)CC2)n1 [dasatinib] | > 10 µM | > 10 µM | 4.78 µM | > 10 µM | > 10 µM | > 10 µM | 0.555 | 0.523 | 0.705 | 0.387 | 0.384 | 0.644 | 0.647 | 0.527 | 2.45 | 2.67 | 2.96 | 2.15 | 2.35 | 2.45 | 2.83 | 3.35
10 | 4 µM | 7.5 µM | CNC(=O)c1cc(COc2nnc(Nc3ccc(Cl)cc3)c3ccoc23)ccn1 [Telatinib (BAY 57-9352)] + Cc1nc(Nc2ncc(C(=O)Nc3c(C)cccc3Cl)s2)cc(N2CCN(CCO)CC2)n1 [dasatinib] | 5.53 µM | > 10 µM | 3.47 µM | > 10 µM | 4.84 µM | > 10 µM | 0.355 | 0.0325 | 0.784 | 0.474 | 0.188 | 0.673 | 0.334 | 0.989 | 2.25 | 2.23 | 3.74 | 2.22 | 2.19 | 2.51 | 2.45 | 4
11 | 8.92 µM | > 10 µM | COc1ccc2cc(-c3[nH]c(-c4ccc(S(C)=O)cc4)nc3-c3ccncc3)ccc2c1 (stereo unspecified) [Tie2 kinase inhibitor] + Cc1nc(Nc2ncc(C(=O)Nc3c(C)cccc3Cl)s2)cc(N2CCN(CCO)CC2)n1 [dasatinib] | > 10 µM | > 10 µM | > 10 µM | > 10 µM | > 10 µM | > 10 µM | 0.595 | 0.468 | 0.97 | 0.521 | 0.657 | 0.64 | 0.68 | 1.07 | 2.36 | 2.51 | 3.88 | 2.03 | 2.41 | 2.4 | 2.69 | 4.56
12 | 0.152 µM | 0.145 µM | Cc1cc(Nc2cc(N3CCN(C)CC3)nc(Sc3ccc(NC(=O)C4CC4)cc3)n2)n[nH]1 [VX-680 (MK-0457, Tozasertib)] + Cc1nc(Nc2ncc(C(=O)Nc3c(C)cccc3Cl)s2)cc(N2CCN(CCO)CC2)n1 [dasatinib] | 0.325 µM | 1.11 µM | 0.0951 µM | 0.511 µM | > 10 µM | 3.33 µM | 0.269 | 0.308 | 0.183 | 0.139 | 0.077 | 0.0667 | 0.536 | 0.0311 | 1.79 | 1.88 | 2.4 | 1.68 | 1.6 | 1.97 | 2.73 | 2.75
13 | 5.42 µM | 0.305 µM | COc1cc2c(Nc3ccc(Br)cc3F)ncnc2cc1OCC1CCN(C)CC1 [Vandetanib (Zactima)] + Cc1nc(Nc2ncc(C(=O)Nc3c(C)cccc3Cl)s2)cc(N2CCN(CCO)CC2)n1 [dasatinib] | 1.13 µM | 7.71 µM | 2.21 µM | > 10 µM | 1.49 µM | 1.88 µM | 0.157 | 0.332 | 0.366 | 0.0849 | 0.0882 | 0.456 | 0.161 | 0.0159 | 2.01 | 2.55 | 3.11 | 1.82 | 2.07 | 2.48 | 2.46 | 2.64
14 | 0.524 µM | 0.0912 µM | c1cncc(CN2CCC(n3ncc4c(N5CCOCC5)nc(-c5ccc6[nH]ccc6c5)nc43)CC2)c1 [WAY-600] + Cc1nc(Nc2ncc(C(=O)Nc3c(C)cccc3Cl)s2)cc(N2CCN(CCO)CC2)n1 [dasatinib] | 0.688 µM | 4.49 µM | 0.306 µM | 0.523 µM | 0.433 µM | 1.1 µM | 0.0156 | 0.00323 | 0.0551 | 0.0438 | 0.0191 | 0.119 | 0.045 | 0.0101 | 1.93 | 1.56 | 3.1 | 1.39 | 1.63 | 1.85 | 1.83 | 2.62
